The target of one assay is MMP13 (Homo sapiens, UniProt P45452). Put plainly: MMP13 inhibition (Table 1). In kind it is biochemical. The conditions noted are these: read-out: percentage inhibition MMP13.
Assay [1] relates to IL-2-induced peritoneal recruitment of lymphocytes. Description: IL-2-induced peritoneal recruitment of lymphocytes. Format: in vivo, C3H/HEN mice. The conditions noted are these: Mus musculus, Lymphocyte, po; 3 mg/kg p.o., 15 min prior to IL-2; mice; 24 h after IL-2. On the procedure:
Administration of IL-2 intraperitoneally causes migration of lymphocytes into the intraperitoneal cavity. This is a model for the cellular migration that occurs during inflammation.
C3H/HEN mice (Elevage Janvier, France) were intraperitoneally injected with IL-2 (Serono Pharmaceutical Research Institute, 20 μg/kg, in saline). Compounds of the invention were suspended in 0.5% carboxymethylcellulose (CMC)/0.25% tween-20 and were administered by s.c. or p.o. route (10 ml/kg) 15 min prior to administration of IL-2.
Twenty-four hours after administration of IL-2, peritoneal white blood cells were collected by 3 successive lavages of the peritoneal cavity with 5 ml phosphate buffered saline (PBS)-1 mM EDTA (+4° C.). The suspension was centrifuged (1700 g×10 min at +4° C.). The resulting pellet was suspended in 1 ml PBS-1 mM EDTA.
Lymphocytes were identified and counted using a Beckman/Coulter counter.
The animals were divided into 6 groups (6 mice each group):
Group 1: (baseline) received 0.5% CMC/0.25% tween-20 (vehicle of compound of the invention) and saline (vehicle of IL-2);
Group 2: (control IL-2) received 0.5% CMC/0.25% tween-20 and injection of IL-2;
Group 3: Experimental group (Compound of the invention Dose 1) received a compound of the invention and injection of IL-2;
Group 4: Experimental group (Compound of the invention Dose 2) received a compound of the invention and injection of IL-2;
Group 5: Experimental group (Compound of the invention Dose 3) received a compound of the invention and injection of IL-2;
Group 6: Reference group received reference compound dexamethasone and injection of IL-2.
Inhibition of lymphocyte recruitment was calculated as follows:
Where Ly 1=Number of lymphocytes in group 1 (E3/μl), Ly 2=Number of lymphocytes in group 2 (E3/μl), Ly X=Number of lymphocytes in group X (3-5) (E3/μl).

Broadly, the inhibition is the share of the control response that was lost under treatment. By inhibition in vivo is commonly meant the relative decrease from the control value, in per cent. For `COc1cc2c(cc1OC)CN(S(=O)(=O)CC([C@H]1COC(C)(C)O1)N(O)C=O)CC2` (stereo partly drawn) [Example 14, N-{2-[(6,7-dimethoxy-3,4-dihydroisoquinolin-2(1H)-yl)sulfonyl]-1-[(4S)-2,2-dimethyl-1,3-dioxolan-4-yl]ethyl}-N-hydroxyformamide], on MMP13, the inhibition at 0.1 µM was found to be 5% and the inhibition at 5 µM worked out at 68%. Further, in assay [1], testing at 3 mg/kg gave an inhibition in vivo of 50 ± 10%.
The like results for `CC1(C)OC[C@H](C(CS(=O)(=O)N2CCc3ccccc3C2)N(O)C=O)O1` (stereo partly drawn) [Example 2, N-{2-(3,4-dihydroisoquinolin-2(1H)-ylsulfonyl)-1-[(4S)-2,2-dimethyl-1,3-dioxolan-4-yl]ethyl}-N-hydroxyformamide] were, in that order, 17%, 98% and 16 ± 13%.
The like results for `O=CN(O)C(CCc1ccccc1)CS(=O)(=O)N1Cc2ccccc2C1` (stereo not drawn) [Example 6, N-{1-[(1,3-dihydro-2H-isoindol-2-ylsulfonyl)methyl]-3-phenylpropyl}-N-hydroxyformamide] were, in that order, 11%, 94% and 40 ± 6%.

The record behind these values is US7879876B2, “Sulfonamide derivatives and use thereof for the modulation of metalloproteinases” (Merck Serono SA, priority 2005, dated 2011).
